Results on 20 molecules are retold here after patent publication US10221129B2, “Inhibitors of human immunodeficiency virus replication” (ViiV HEALTHCARE UK (NO.5) LIMITED, priority 2015, dated 2019).

Series [1] can be described thus: Compound cytotoxicity, XTT-based colorimetric assay. The class given is cell-based. The note with it: human, uninfected MT2 cells, day 4, XTT. In short, it runs like this:
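Run under the antiviral-assay protocol but without virus. Viability was read on day 4 and CC50 values were derived from the readout.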

The subject of series [2] is recombinant NL4-3 virus (nef section replaced with Renilla luciferase gene) in MT-2 cells. Nature of the series: HIV cell culture assay (antiviral activity, luciferase readout). The following applies: Renilla, NL43, MT-2 cells infected for 4-5 days with recombinant NL4-3 Renilla luciferase virus. The class given is cell-based. In outline:
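Serial compound dilutions tested in MT-2 cells infected for 4-5 days with 293T-derived NL4-3 virus carrying Renilla luciferase in place of part of nef. Antiviral activity quantified as luciferase activity, read with a live-cell substrate.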

For the molecule `COC(=O)Nc1ccc(NS(=O)(=O)NC(=O)N[C@@H](Cc2ccccc2)C(=O)N(C)c2ccc(OC)cc2)cc1` [JB-62], the CC50 – broadly, the concentration that lowers cell viability or growth by half – at 4 days in series [1] was greater than 100 µM. Further, in series [2], the EC50 (usually the concentration at which the effect is half-maximal) was 290 nM.

As for `CN(C(=O)[C@H](Cc1cc(F)cc(F)c1)NC(=O)NS(=O)(=O)N1CCc2cccnc21)c1ccc(OC(F)(F)F)cc1` [GW-7], the half-maximal cytotoxic concentration (CC50) at 4 days in series [1] is 16.8 µM. Also, the concentration for a half-maximal effect (EC50) in series [2] turned out to be 30 nM.

In series [1], `COc1ccc(N(C)C(=O)[C@H](Cc2ccccc2)NC(=O)NS(=O)(=O)N(C)c2ccccc2C)cc1` [JB-18] showed a cytotoxic concentration (CC50) at 4 days greater than 100 µM. In addition, the EC50 in series [2] worked out at 560 nM.

Turning to `COc1ccc(N(C)C(=O)[C@H](Cc2ccccc2)NC(=O)NS(=O)(=O)Nc2cccc(C)c2)cc1` [JB-24], in series [1], the CC50 at 4 days is greater than 100 µM. Moreover, the EC50 in series [2] stood at 100 nM.

Molecule `COc1ccc(N(C)S(=O)(=O)NC(=O)N[C@@H](Cc2cc(F)cc(F)c2)C(=O)N(C)c2ccc3scnc3c2)cn1` [CA-118] yielded a cytotoxic concentration (CC50) at 4 days in series [1] greater than 100 µM. Moreover, the EC50 in series [2] was 160 nM.

In series [1], `CN(C(=O)[C@H](Cc1cc(F)cc(F)c1)NC(=O)NS(=O)(=O)N1CCCC1=O)c1ccc2scnc2c1` [BB-33] gave a cytotoxic concentration (CC50) at 4 days greater than 100 µM. Also, the EC50 in series [2] is 450 nM.

Regarding `CN(C(=O)[C@H](Cc1cc(F)cc(F)c1)NC(=O)NS(=O)(=O)N1CCc2ccccc21)c1ccc2scnc2c1` [ZY-8], in series [1], the CC50 at 4 days amounted to 88 µM. In addition, the EC50 in series [2] was found to be 20 nM.

Regarding `COc1ccc(N(C)C(=O)[C@H](Cc2ccccc2)NC(=O)NS(=O)(=O)Nc2ccccc2C)cc1` [JB-17], the CC50 at 4 days in series [1] was greater than 100 µM. The concentration for a half-maximal effect (EC50) in series [2] amounted to 80 nM.

`CN(C(=O)[C@H](Cc1cc(F)cc(F)c1)NC(=O)NS(=O)(=O)N1CCCC1)c1ccc2scnc2c1` [VN-22] displayed a CC50 at 4 days in series [1] greater than 100 µM. Moreover, the EC50 in series [2] came out at 50 nM.

Molecule `CN(C(=O)[C@H](Cc1cc(F)cc(F)c1)NC(=O)NS(=O)(=O)N(C)CCO)c1ccc2scnc2c1` [CA-125] had a cytotoxic concentration (CC50) at 4 days in series [1] greater than 100 µM. For the same molecule, the EC50 in series [2] amounted to 160 nM.

In the case of `CN(C(=O)[C@H](Cc1cc(F)cc(F)c1)NC(=O)NS(=O)(=O)N1CCC(O)CC1)c1ccc2scnc2c1` [CA-155], in series [1], the half-maximal cytotoxic concentration (CC50) at 4 days was greater than 100 µM. The concentration for a half-maximal effect (EC50) in series [2] worked out at 200 nM.

As for `COc1cncc(N(C)C(=O)[C@H](Cc2cc(F)cc(F)c2)NC(=O)NS(=O)(=O)N2CCc3cccnc32)c1` [BB-19], the half-maximal cytotoxic concentration (CC50) at 4 days in series [1] was greater than 100 µM. Besides, in series [2], the half-maximal effective concentration (EC50) stood at 3270 nM.

Molecule `CN(C(=O)[C@H](Cc1cc(F)cc(F)c1)NC(=O)NS(=O)(=O)NCc1cccnc1)c1ccc2scnc2c1` [CA-135] had a cytotoxic concentration (CC50) at 4 days in series [1] greater than 100 µM. Moreover, the concentration giving a half-maximal response (EC50) in series [2] was found to be 1530 nM.

Turning to `COc1ccc(N(C)C(=O)[C@H](Cc2ccccc2)NC(=O)NS(=O)(=O)N(C)CC(=O)N(C)C)cc1` [JB-30], in series [1], the CC50 at 4 days is greater than 100 µM. Also, the 50% effective concentration (EC50) in series [2] came to 1950 nM.

`COc1ccc(N(C)C(=O)[C@H](Cc2ccccc2)NC(=O)NS(=O)(=O)N2CCc3cc(OC)cc(C)c32)cc1` [CA-56] gave a half-maximal cytotoxic concentration (CC50) at 4 days in series [1] greater than 100 µM. Further, in series [2], the 50% effective concentration (EC50) worked out at 1310 nM.

In series [1], `COc1ccc(N(C)C(=O)[C@H](Cc2ccccc2)NC(=O)NS(=O)(=O)Nc2ccc(S(=O)(=O)N3CCCC3)cc2)cc1` [CA-43] came in with a CC50 at 4 days greater than 100 µM. Besides, in series [2], the concentration for a half-maximal effect (EC50) amounted to 300 nM.

`[2H]c1nc2cc(N(C)C(=O)[C@H](Cc3cc(F)cc(F)c3)NC(=O)NS(=O)(=O)N3CCc4cccnc43)ccc2s1` [GW-23] gave a half-maximal cytotoxic concentration (CC50) at 4 days in series [1] greater than 10 µM. The 50% effective concentration (EC50) in series [2] worked out at 20 nM.

With `CN(C(=O)[C@H](Cc1cc(F)cc(F)c1)NC(=O)NS(=O)(=O)N1CCc2cccnc21)c1ccc(Cl)cc1` [ZY-25], it took 97.1 µM to reach half-maximal cytotoxicity in series [1] (CC50 at 4 days). Besides, the EC50 in series [2] is 30 nM.

The molecule `COc1ccc(N(C)C(=O)[C@H](Cc2ccccc2)NC(=O)NS(=O)(=O)N2CCN(C)CC2c2ccccc2)cc1` (mixture of isomers) [JB-42] yielded a CC50 at 4 days in series [1] greater than 100 µM. In addition, in series [2], the EC50 was determined as 450 nM.

For the molecule `CCCNS(=O)(=O)NC(=O)N[C@@H](Cc1cc(F)cc(F)c1)C(=O)N(C)c1ccc2scnc2c1` [CA-146], the cytotoxic concentration (CC50) at 4 days in series [1] was greater than 100 µM. Moreover, the EC50 in series [2] is 50 nM.
